From patent US8013011B2, “Treatment and prevention of benign pigmented moles (naevi) using artemisinine and the derivatives thereof” (EPIPHARM GmbH, priority 2005, dated 2011) come the findings set out here.

The data set is described as follows: Skin tolerability observed during the topical treatments. It counts as in vivo, human. As to conditions: described topical treatments. An excerpt:
A low-risk, non-invasive preventative or therapeutic treatment of acquired nevus cell nevi or of acquired or congenital nevus cell nevi (=birthmarks) with artemisinine and derivatives thereof (dihydroartemisinine, arteether, arthemeter, artesunate semisynthetic derivatives thereof and synthetically analogous compounds) represents enormous progress in the treatment of nevus cell nevi and could drastically reduce the risk of skin cancer. The invention is thus of great significance not only medically but also socioeconomically. […] It is also remarkable that healthy tissue is not damaged and the treatment is painless and simple.

`C[C@H]1[C@H](OC(=O)CCC(=O)O)O[C@@H]2O[C@@]3(C)CC[C@H]4[C@H](C)CC[C@@H]1[C@@]24OO3` [artesunate]: the allergic skin reactions result is given as “No allergic skin reactions”.
